Assay results from patent publication EP0745595A1, “3-(3-Aryloxyphenyl)-1-(substituted methyl)-s-triazine-2,4,6-oxo or thiotrione herbicidal agents” (American Cyanamid Company, priority 1995, dated 1996).

What was measured:
Type in all cases: in vivo
[1] = system: AMBROSIA ARTEMISIIFOLIA, L.; experiment: Preemergence herbicidal evaluation, AMBEL (Ragweed, Common); settings: for AMBEL herbicidal rating: rated four to five weeks after treatment
Procedure, shortened: (§1)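 Injury scored visually (0–9; stand, vigor, malformation, size, chlorosis) versus untreated control, four to five weeks post-treatment. Application: aqueous acetone spray onto freshly planted soil cups, equivalent to about 0.125 to 0.50 kg/ha, plants then kept under standard greenhouse care.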

[…] = Preemergence evaluation in the presence of transplanted rice under flooded paddy conditions (Example 43), MOOVA (Monochoria); settings: applied three days after sowing, 25 to 30 days after treatment
Experimental: (§2) Results of herbicide evaluation are expressed on a rating scale (0-9). The scale is based upon a visual observation of plant stand, vigor, malformation, size, chlorosis and overall plant appearance as compared with a control.
(§3) In this example, Deluvian paddy soil (Toyokawa paddy soil) is placed in plastic pots, 100cm^2 x 9 cm in depth. Water is added to the level of the soil surface in the pot and the mixture is paddled 3 cm in depth.
(§4) Pots are then variously sown with monocotyledenous weed seeds and tubers at 0-2 cm in soil depth, as well as transplanted rice plants at the 2.5 leaf stage. The rice plants are transplanted at about 3 cm soil depth. Water is then added to all of the pots to 3 cm deep and kept at a depth of 3 cm for the duration of the test. Test compounds are applied in the manner described in Example 42 three days after transplanting the rice plants and sowing the weed seeds and tubers. The pots are then placed on greenhouse benches and cared for in the conventional manner. Tests are examined at 25 to 30 days after treatment and rated according to the rating system provided in Example 40. The compounds evaluated are reported by compound number given in Example 40.

CYPERUS DIFFORMIS = experiment: Preemergence evaluation in the presence of transplanted rice under flooded paddy conditions (Example 43), CYPDI (Flatsedge, smallflower); parameters: key: visual rating on a 0-9 scale, compared with control; settings: applied three days after sowing, 25 to 30 days after treatment
Experimental: as §2, §3, §4

ECHINOCHLOA CRUS-GALLI = experiment: Preemergence evaluation in the presence of transplanted rice under flooded paddy conditions (Example 43), ECHCG (Barnyard Grass); parameters: key: visual rating on a 0-9 scale, compared with control; settings: applied three days after sowing, 25 to 30 days after treatment
Experimental: as §2, §3, §4

[2] = system: ORYZA SATIVA, L. CV. KOSHIHIKARI; experiment: Post-transplant rice evaluation under flooded paddy conditions (Example 43), ORYSAK (Rice, Koshihikari); parameters: key: visual rating on a 0-9 scale, compared with control; settings: applied three days after transplanting rice, 25 to 30 days after treatment
Experimental: as §2, §3, §4

SCIRPUS JUNCOIDES = experiment: Preemergence evaluation in the presence of transplanted rice under flooded paddy conditions (Example 43), SCPJU (Bulrush, Japanese); parameters: key: visual rating on a 0-9 scale, compared with control; settings: applied three days after sowing, 25 to 30 days after treatment
Experimental: as §2, §3, §4

SAGITTARIA PYGMAEA = experiment: Preemergence evaluation in the presence of transplanted rice under flooded paddy conditions (Example 43), SAGPY (Arrowhead (Pygmaea)); parameters: key: visual rating on a 0-9 scale, compared with control; settings: applied three days after sowing, 25 to 30 days after treatment
Experimental: as §2, §3, §4

[3] = system: ORYZA SATIVA, L. TEBONNET; experiment: Preemergence herbicidal evaluation, ORYSAT (Rice, Tebonnet); settings: rated four to five weeks after treatment
Procedure, shortened: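 Seeds of rice (Oryza sativa, Tebonnet) were mixed with potting soil and sown on about one inch of soil in pint cups, then treated preemergence. Cups sat on greenhouse benches, watered and tended by standard greenhouse practice. Four to five weeks after treatment, plants were visually scored on a 0-9 scale relative to a control.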

[4] = system: TRITICUM AESTIVUM, CV. APOLLO; experiment: Preemergence herbicidal evaluation, TRZAWO (Wheat, Winter, CV. APOLLO); settings: rated four to five weeks after treatment
Procedure, shortened: as §1

[5] = system: ABUTILON THEOPHRASTI, MEDIC.; experiment: Preemergence herbicidal evaluation, ABUTH (Velvetleaf); settings: rated four to five weeks after treatment
Procedure, shortened: as §1

[6] = system: SETARIA VIRIDIS, (L) BEAU; experiment: Preemergence herbicidal evaluation, SETVI (Foxtail, Green); settings: rated four to five weeks after treatment
Procedure, shortened: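 Seeds of green foxtail (Setaria viridis) were mixed with potting soil and sown on top of roughly one inch of soil in pint cups for a preemergence herbicide test. Treated cups were kept on greenhouse benches, watered, and cared for conventionally. Four to five weeks after treatment, plants were rated visually on a 0-9 scale against a control.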

[7] = system: ECHINOCHLOA CRUS-GALLI, (L) BEAU; experiment: Preemergence herbicidal evaluation, ECHCG (Barnyardgrass); settings: rated four to five weeks after treatment
Procedure, shortened: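 Barnyardgrass seeds were mixed with potting soil and planted on about one inch of soil in pint cups for preemergence testing. Treated cups were kept on greenhouse benches, watered and maintained by standard greenhouse practice. After four to five weeks, each cup was visually rated on a 0-9 scale against an untreated control.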

IPOMOEA SPP. = experiment: Preemergence herbicidal evaluation, IPOSS (Morningglory spp.); settings: rated four to five weeks after treatment
Procedure, shortened: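 Seeds of morningglory (Ipomoea spp.) were mixed with potting soil and sown on roughly one inch of soil in pint cups for a preemergence herbicide test. The cups were put on greenhouse benches, watered, and maintained by standard greenhouse practice. Four to five weeks after treatment each cup was scored visually on a 0-9 scale against a control.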

## Cn1c(=O)[nH]c(=O)n(-c2cc(Oc3c(F)cc(C(F)(F)F)cc3Cl)ccc2F)c1=O [C, reference compound]
[1]; Rate 0.031 kg/ha
  AMBEL: 0.0
[1]; Rate 0.063 kg/ha
  AMBEL: 0.0
[1]; Rate 0.125 kg/ha
  AMBEL: 0.0
[1]; Rate 0.250 kg/ha
  AMBEL: 0.0

## COC(=O)Cn1c(=O)n(C)c(=O)n(-c2cc(Oc3c(F)cc(C(F)(F)F)cc3Cl)ccc2F)c1=O [Compound 4, Methyl 3-{5-[(2-chloro-α,α,α,6-tetrafluoro-p-tolyl)oxy]-2-fluorophenyl}tetrahydro-5-methyl-2,4,6-trioxo-s-triazine-1(2H)-acetate]
[…]; 0.032 kg/ha
  Herbicidal effect rating, MOOVA: 9.0
[…]; 0.063 kg/ha
  Herbicidal effect rating, MOOVA: 9.0
[…]; 0.125 kg/ha
  Herbicidal effect rating, MOOVA: 9.0
[…]; 0.250 kg/ha
  Herbicidal effect rating, MOOVA: 9.0
CYPERUS DIFFORMIS; 0.032 kg/ha
  Herbicidal effect rating, CYPDI: 9.0
CYPERUS DIFFORMIS; 0.063 kg/ha
  Herbicidal effect rating, CYPDI: 9.0
CYPERUS DIFFORMIS; 0.125 kg/ha
  Herbicidal effect rating, CYPDI: 9.0
CYPERUS DIFFORMIS; 0.250 kg/ha
  Herbicidal effect rating, CYPDI: 9.0
ECHINOCHLOA CRUS-GALLI; 0.032 kg/ha
  Herbicidal effect rating, ECHCG: 9.0
ECHINOCHLOA CRUS-GALLI; 0.063 kg/ha
  Herbicidal effect rating, ECHCG: 9.0
ECHINOCHLOA CRUS-GALLI; 0.125 kg/ha
  Herbicidal effect rating, ECHCG: 9.0
ECHINOCHLOA CRUS-GALLI; 0.250 kg/ha
  Herbicidal effect rating, ECHCG: 9.0
[2]; 0.032 kg/ha
  Herbicidal effect rating, ORYSAK: 1.0
[2]; 0.063 kg/ha
  Herbicidal effect rating, ORYSAK: 4.0
[2]; 0.125 kg/ha
  Herbicidal effect rating, ORYSAK: 7.0
[2]; 0.250 kg/ha
  Herbicidal effect rating, ORYSAK: 9.0
SCIRPUS JUNCOIDES; 0.032 kg/ha
  Herbicidal effect rating, SCPJU: 7.0
SCIRPUS JUNCOIDES; 0.063 kg/ha
  Herbicidal effect rating, SCPJU: 9.0
SCIRPUS JUNCOIDES; 0.125 kg/ha
  Herbicidal effect rating, SCPJU: 9.0
SCIRPUS JUNCOIDES; 0.250 kg/ha
  Herbicidal effect rating, SCPJU: 9.0
SAGITTARIA PYGMAEA; 0.032 kg/ha
  Herbicidal effect rating, SAGPY: 0.0
SAGITTARIA PYGMAEA; 0.063 kg/ha
  Herbicidal effect rating, SAGPY: 2.0
SAGITTARIA PYGMAEA; 0.125 kg/ha
  Herbicidal effect rating, SAGPY: 6.0
SAGITTARIA PYGMAEA; 0.250 kg/ha
  Herbicidal effect rating, SAGPY: 9.0

## COC(=O)Cn1c(=O)n(C)c(=O)n(-c2cc(Oc3ccc(SC)cc3Cl)ccc2[N+](=O)[O-])c1=O [Compound 34, Methyl 3-{5-[2-chloro-4-(methylthio)-phenoxy]-2-nitrophenyl}tetrahydro-5-methyl-2,4,6-trioxo-s-triazine-1(2H)-acetate]
[3]; Rate 0.125 kg/ha
  ORYSAT herbicidal rating: 0.0
[3]; Rate 0.250 kg/ha
  ORYSAT herbicidal rating: 0.0
[3]; Rate 0.500 kg/ha
  ORYSAT herbicidal rating: 0.0
[4]; Rate 0.125 kg/ha
  TRZAWO herbicidal rating: 0.0
[4]; Rate 0.250 kg/ha
  TRZAWO herbicidal rating: 0.0
[4]; Rate 0.500 kg/ha
  TRZAWO herbicidal rating: 0.0
[5]; Rate 0.125 kg/ha
  ABUTH herbicidal rating: 0.0
[5]; Rate 0.250 kg/ha
  ABUTH herbicidal rating: 0.0
[5]; Rate 0.500 kg/ha
  ABUTH herbicidal rating: 0.0
[6]; Rate 0.125 kg/ha
  SETVI herbicidal rating: 0.0
[6]; Rate 0.250 kg/ha
  SETVI herbicidal rating: 0.0
[6]; Rate 0.500 kg/ha
  SETVI herbicidal rating: 0.0
[1]; Rate 0.125 kg/ha
  AMBEL herbicidal rating: 0.0
[1]; Rate 0.250 kg/ha
  AMBEL herbicidal rating: 0.0
[1]; Rate 0.500 kg/ha
  AMBEL herbicidal rating: 0.0
[7]; Rate 0.125 kg/ha
  ECHCG herbicidal rating: 0.0
[7]; Rate 0.250 kg/ha
  ECHCG herbicidal rating: 0.0
[7]; Rate 0.500 kg/ha
  ECHCG herbicidal rating: 0.0
IPOMOEA SPP.; Rate 0.125 kg/ha
  IPOSS herbicidal rating: 0.0
IPOMOEA SPP.; Rate 0.250 kg/ha
  IPOSS herbicidal rating: 0.0
IPOMOEA SPP.; Rate 0.500 kg/ha
  IPOSS herbicidal rating: 0.0
